# According to patent publication US10364226B2, “Pyridazinone compounds and uses thereof” (priority 2013, dated 2019):
# Key:
# [1] = tested on: Influenza strain A549 A/WSN/33 (H1N1); experiment: Influenza Antiviral Assay; assay type: cell-based, Influenza A virus; conditions: Influenza A virus, A549, 20 h, neuraminidase fluorescence readout, read-out: % Inhibition
# EN PA = EN PA (Influenza A virus, UniProt P15659); experiment: EN PA FRET Inhibition Assay; assay type: biochemical; conditions: read-out: Potency
SMILES,EC50 [1],IC50 (EN PA)
CC(C)C1CCN(c2ccccc2-n2cc(O)c(=O)c(C(=O)O)n2)CC1 [Compound 207],20000 to 100000 nM,100 to 1000 nM
CCCC(Cn1cc(O)c(=O)c(C(=O)NC)n1)n1cc(C)c2cccnc21 (stereo not drawn) [Compound 791],< 20000 nM,100 to 1000 nM
CNC(=O)c1nn(CC2(n3cc(C)c4cccnc43)CCCC2)cc(OC(=O)C(C)(C)C)c1=O [Compound 679],< 20000 nM,< 100 nM
O=C(O)c1nn(-c2ccccc2-c2ccccc2)cc(O)c1=O [Compound 18],> 100000 nM,100 to 1000 nM
CNC(=O)c1nn(CC2(c3cccc4[nH]ncc34)CCCC2)cc(O)c1=O [Compound 871],> 100000 nM,< 100 nM
CNC(=O)c1nn(CC2(n3nc(C)c4ccccc43)CCCC2)cc(O)c1=O [Compound 824],< 20000 nM,100 to 1000 nM
Cc1cc(CNC(=O)c2nn(CC3(c4cccc(C(F)(F)F)c4)CCCC3)cc(O)c2=O)[nH]n1 [Compound 648],< 20000 nM,< 100 nM
CNC(=O)c1nn(CC2(c3cccc4ccccc34)CCCC2)cc(O)c1=O [Compound 749],< 20000 nM,< 100 nM
O=C(O)c1nn(CC2(n3ccc4cccnc43)CCCC2)cc(O)c1=O [Compound 422],< 20000 nM,< 100 nM
CNC(=O)c1nn(CC2(c3ccc4cc(C)ccc4c3)CCCC2)cc(O)c1=O [Compound 879],< 20000 nM,< 100 nM
Cc1cn(C2(Cn3cc(O)c(=O)c(C(=O)NCC(C)(C)CNC(=O)OC(C)(C)C)n3)CCCC2)c2ncccc12 [Compound 869],< 20000 nM,100 to 1000 nM
O=C(NCc1ccc(Cl)cc1)c1nn(CC2(c3cccc(C(F)(F)F)c3)CCCC2)cc(O)c1=O [Compound 523],< 20000 nM,100 to 1000 nM
O=C(O)c1nn(CC2(c3ccccc3)CCCC2)cc(O)c1=O [Compound 410],< 20000 nM,< 100 nM
CCc1cccc(C2(Cn3cc(O)c(=O)c(C(=O)NC)n3)CCCC2)c1 [Compound 733],< 20000 nM,< 100 nM
O=C(NCc1ccc(F)c(Cl)c1)c1nn(CC2(c3ccncc3)CCCC2)cc(O)c1=O [Compound 809],< 20000 nM,< 100 nM
CNC(=O)c1nn(CC2(n3cc(C)c4cccnc43)CCCC2)cc(OC(=O)N(C)C)c1=O [Compound 765],20000 to 100000 nM,≥ 1000 nM
C=Cc1cccc(C2(Cn3cc(O)c(=O)c(C(=O)NC)n3)CCCC2)c1 [Compound 738],< 20000 nM,< 100 nM
CNC(=O)c1nn(CC2(c3cc(C)cc4ncccc34)CCCC2)cc(O)c1=O [Compound 889],< 20000 nM,< 100 nM
CCCc1cnc2c(ccn2C2(Cn3cc(O)c(=O)c(C(=O)NC)n3)CCCC2)c1 [Compound 755],< 20000 nM,< 100 nM
Cc1cn(C2(Cn3cc(O)c(=O)c(C(=O)NC(C)(C)C)n3)CCCC2)c2ncccc12 [Compound 792],< 20000 nM,< 100 nM
O=C(O)c1nn(CC2(c3cccc(C(F)(F)F)c3)CCCC2)cc(O)c1=O [Compound 406],< 20000 nM,< 100 nM
CNC(=O)c1nn(-c2ccccc2-c2ccccc2OC2CCCC2)cc(O)c1=O [Compound 610],20000 to 100000 nM,100 to 1000 nM

SMILES,EC50 [1],IC50 (EN PA)
Cc1cn(C2(Cn3cc(O)c(=O)c(C(=O)NCC(C)C)n3)CCCC2)c2ncccc12 [Compound 821],< 20000 nM,< 100 nM
CNC(=O)c1nn(CC2(n3cc(C)c4cccnc43)CCCC2)cc(OC(=O)OC(C)(C)C)c1=O [Compound 789],< 20000 nM,< 100 nM
O=C(Nc1ccccc1)c1nn(CC2(c3cccc(C(F)(F)F)c3)CCCC2)cc(O)c1=O [Compound 517],< 20000 nM,100 to 1000 nM
CNC(=O)c1nn(CC2(n3cc(C(=O)NC)c4cccnc43)CCCC2)cc(O)c1=O [Compound 880],> 100000 nM,< 100 nM
O=C(NCc1ccccc1)c1nn(CC2(c3cccc(C(F)(F)F)c3)CCCC2)cc(O)c1=O [Compound 509],< 20000 nM,100 to 1000 nM
CNC(=O)c1nn(CC2(c3cccc4nn(C)cc34)CCCC2)cc(O)c1=O [Compound 882],< 20000 nM,< 100 nM
O=C(NC1(C(F)(F)F)CCCC1)c1nn(CC2(c3cccc(C(F)(F)F)c3)CCCC2)cc(O)c1=O [Compound 503],< 20000 nM,100 to 1000 nM
CNC(=O)c1nn(CC2(n3cc(C4CC4)c4cccnc43)CCCC2)cc(O)c1=O [Compound 718],< 20000 nM,< 100 nM
Cc1cn(C2(Cn3cc(O)c(=O)c(C(=O)NC(C)(C)CO)n3)CCCC2)c2ncccc12 [Compound 820],< 20000 nM,< 100 nM
CCNC(=O)c1nn(CC2(n3cc(C)c4cccnc43)CCCC2)cc(O)c1=O [Compound 741],< 20000 nM,< 100 nM
O=C(O)c1nn(CCc2cccc3ccccc23)cc(O)c1=O [Compound 423],> 100000 nM,100 to 1000 nM
CNC(=O)c1nn(CC2(c3ccc4cc(C)cnc4c3)CCCC2)cc(O)c1=O [Compound 890],< 20000 nM,< 100 nM
Cc1cn(C2(Cn3cc(O)c(=O)c(C(=O)NCC(C)(C)CO)n3)CCCC2)c2ncccc12 [Compound 823],< 20000 nM,< 100 nM
Cn1cc(CNC(=O)c2nn(CC3(c4cccc(C(F)(F)F)c4)CCCC3)cc(O)c2=O)cn1 [Compound 646],< 20000 nM,< 100 nM
"O=C(O)c1nn(-c2cccc(C(F)(F)F)c2)cc(O)c1=O [Compound 1, 5-hydroxy-4-oxo-1-(3-(trifluoromethyl)phenyl)-1,4-dihydropyridazine-3-carboxylic acid]",> 100000 nM,100 to 1000 nM
O=C(O)c1nn(CCCc2ccccc2)cc(O)c1=O [Compound 402],> 100000 nM,100 to 1000 nM
CNC(=O)c1nn(CC2(n3cc(C)c4cccnc43)CCCCC2)cc(O)c1=O [Compound 788],< 20000 nM,< 100 nM
O=C(O)c1nn(-c2ccccc2Oc2ccccc2)cc(O)c1=O [Compound 9],> 100000 nM,100 to 1000 nM
O=C(NC1CC1)c1nn(CC2(c3ccccc3)CCCC2)cc(O)c1=O [Compound 676],< 20000 nM,< 100 nM
CNC(=O)c1nn(CC2(n3ccc4ccc(C)cc43)CCCC2)cc(O)c1=O [Compound 810],< 20000 nM,< 100 nM
O=C1NCC/C=C/Cc2ccc3ccn(c3c2)C2(CCCC2)Cn2cc(O)c(=O)c1n2 [Compound 841],< 20000 nM,100 to 1000 nM
CNC(=O)c1nn(CC2(n3cc(C(C)=O)c4cc(C)cnc43)CCCC2)cc(O)c1=O [Compound 894],< 20000 nM,< 100 nM

SMILES,EC50 [1],IC50 (EN PA)
CNC(=O)c1nn(CC2(n3ccc4cc(Cl)cnc43)CCCC2)cc(O)c1=O [Compound 818],< 20000 nM,< 100 nM
O=C(O)c1nn(CCC2CCCCC2)cc(O)c1=O [Compound 421],> 100000 nM,100 to 1000 nM
CNC(=O)c1nn(-c2ccccc2-c2ccc(CC(C)C)cc2)cc(O)c1=O [Compound 501],< 20000 nM,≥ 1000 nM
Cc1cn(C2(Cn3cc(O)c(=O)c(C(=O)NC4CC4)n3)CCCC2)c2ncccc12 [Compound 661],< 20000 nM,< 100 nM
Cc1cn(C2(Cn3cc(O)c(=O)c(C(=O)NCc4ccc(F)c(Cl)c4)n3)CCCC2)c2ncccc12 [Compound 757],< 20000 nM,< 100 nM
CC(C)c1cccc(C2(Cn3cc(O)c(=O)c(C(N)=O)n3)CCCC2)c1 [Compound 730],< 20000 nM,< 100 nM
CNC(=O)c1nn(CC2(n3cc(C)c4cccnc43)CCCC2)cc(O)c1=O [Compound 622],< 20000 nM,100 to 1000 nM
Cc1cn(C2(Cn3cc(O)c(=O)c(C(=O)NCC(C)(C)CN)n3)CCCC2)c2ncccc12 [Compound 870],20000 to 100000 nM,< 100 nM
CCOC(=O)Oc1cn(CC2(n3cc(C)c4cccnc43)CCCC2)nc(C(=O)NC)c1=O [Compound 775],< 20000 nM,< 100 nM
CNC(=O)c1nn(CC2(c3ccc(C)cc3)CC2)cc(O)c1=O [Compound 656],> 100000 nM,100 to 1000 nM
CNC(=O)c1nn(CC2(n3cc(Cl)c4cc(Cl)ccc43)CCCC2)cc(O)c1=O [Compound 899],< 20000 nM,< 100 nM
CNC(=O)c1nn(CCN2c3ccccc3COc3ccccc32)cc(O)c1=O [Compound 842],> 100000 nM,100 to 1000 nM
O=C(O)c1nn(-c2ccccc2-c2ccccc2-c2ccccc2)cc(O)c1=O [Compound 35],< 20000 nM,< 100 nM
CNC(=O)c1nn(CC2(n3cc(Cl)c4cc(Cl)cnc43)CCCC2)cc(O)c1=O [Compound 887],< 20000 nM,< 100 nM
CNC(=O)c1nn(CCC(c2ccccc2)c2ccccc2)cc(O)c1=O [Compound 837],> 100000 nM,100 to 1000 nM
CNC(=O)c1nn(CC(c2ccccc2)C2CCCC2)cc(O)c1=O (stereo not drawn) [Compound 658],> 100000 nM,100 to 1000 nM
O=C(O)c1nn(CCc2c[nH]c3ccccc23)cc(O)c1=O [Compound 407],> 100000 nM,100 to 1000 nM
CNC(=O)c1nn(CC2c3ccccc3CCc3ccccc32)cc(O)c1=O [Compound 670],> 100000 nM,100 to 1000 nM
Cc1cn(C2(Cn3cc(O)c(=O)c(C(=O)NCCCO)n3)CCCC2)c2ncccc12 [Compound 759],< 20000 nM,< 100 nM
CC(=O)c1nn(CC2(n3cc(C)c4cccnc43)CCCC2)cc(O)c1=O [Compound 795],< 20000 nM,100 to 1000 nM
CONC(=O)c1nn(CC2(n3cc(C)c4cccnc43)CCCC2)cc(O)c1=O [Compound 854],< 20000 nM,< 100 nM
"CCN(CC)S(=O)(=O)c1ccc(OC)c(-n2cc(O)c(=O)c(C(=O)O)n2)c1 [Compound 2, 1-(5-(N,N-diethylsulfamoyl)-2-methoxyphenyl)-5-hydroxy-4-oxo-1,4-dihydropyridazine-3-carboxylic acid]",> 100000 nM,100 to 1000 nM
